The text below walks through data of PubChem BioAssay (NCI).

Test systems include SK-OV-3 ovarian; MALME-3M melanoma; NCI-H522 lung; UO-31 renal; HOP-62 NSCLC; K-562 leukemia; MOLT-4 leukemia; HT29 colon; A549 NSCLC; HOP-92 NSCLC.
Assay in all cases: NCI tumour cell line growth inhibition, 48 h

Each structure is given as a SMILES string. Where “and” joins values, the source holds several entries; their conditions need not be identical. Equal entries are not always repeated.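 In this assay, cells in 96-well plates receive the compound at five concentrations for 48 hours. Endpoints are linearly interpolated between the surrounding concentrations. The concentration for 50% growth inhibition is given as GI50. At the TGI there is no net growth.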 Where only a bound is given, the exact number is not on record here.

As for `C=CC(=O)Nc1cc2c(Nc3ccc(F)c(Cl)c3)ncnc2cc1OCCCN1CCOCC1`, the GI50 in the assay on SK-OV-3 ovarian was 0.0791 µM and 0.127 µM; in the assay on MALME-3M melanoma, 2.41 µM and 6.17 µM; with NCI-H522 lung, 0.546 µM and 0.119 µM; in the assay with UO-31 renal, 0.288 µM and 0.103 µM; with HOP-62 NSCLC, 3.27 µM and > 5.63 µM; with K-562 leukemia it was 1.91 µM and 2.84 µM. Moreover, the GI50 with MOLT-4 leukemia was 1.85 µM and 2.87 µM; in the assay on HT29 colon, 1.64 µM and 2.26 µM; in the assay on A549 NSCLC, 2.37 µM and 5.1 µM; in the assay on HOP-92 NSCLC it was 0.534 µM and 0.551 µM. The TGI in the assay with SK-OV-3 ovarian is 4.1 µM and > 9.32 µM; in the assay with MALME-3M melanoma it was 5.84 µM and > 10 µM; with NCI-H522 lung it was 2.37 µM and 1.98 µM; in the assay with UO-31 renal, 12.9 µM and > 8.65 µM; with HOP-62 NSCLC it was 13.9 µM and > 10 µM; in the assay on K-562 leukemia, 14.5 µM and > 10 µM. Moreover, the TGI with MOLT-4 leukemia was 5.18 µM and > 9.25 µM; with HT29 colon, 3.48 µM and > 8.38 µM; in the assay on A549 NSCLC, 17 µM and > 10 µM; with HOP-92 NSCLC, 2.49 µM and 5.9 µM.

With `COC1C2C=CC(C2)[C@H]1[N+](=O)[O-]` (stereo partly drawn), the TGI in the assay on SK-OV-3 ovarian, with MALME-3M melanoma, in the assay on NCI-H522 lung, with UO-31 renal, in the assay with HOP-62 NSCLC and in the assay on K-562 leukemia was greater than 100 µM each time. Further, the TGI in the assay on MOLT-4 leukemia, with HT29 colon, in the assay with A549 NSCLC and with HOP-92 NSCLC was greater than 100 µM each time.

`CN(C)/N=C(/c1nc2ccc(Cl)cc2[nH]c1=O)C(O)c1ccc(C(O)/C(=N\N(C)C)c2nc3ccc(Cl)cc3[nH]c2=O)cc1` (stereo not drawn): the TGI with SK-OV-3 ovarian, in the assay on MALME-3M melanoma, in the assay with NCI-H522 lung, with UO-31 renal, with HOP-62 NSCLC and with K-562 leukemia was greater than 100 µM each time. Also, the TGI in the assay on MOLT-4 leukemia, in the assay on HT29 colon, in the assay on A549 NSCLC and in the assay on HOP-92 NSCLC was greater than 100 µM in each case.

With `O=C(O)C1CCCCC1C(=O)O.[NH-]C1CCC1.[NH2-].[Pt+2]` (stereo not drawn), the GI50 in the assay on SK-OV-3 ovarian was 48.7 µM; in the assay on MALME-3M melanoma, 18.6 µM; in the assay with NCI-H522 lung, 7.21 µM; in the assay with UO-31 renal it was 19.4 µM; in the assay on HOP-62 NSCLC, 77 µM; with K-562 leukemia, 29.6 µM. In addition, the GI50 was 5.48 µM with MOLT-4 leukemia, 17.2 µM with HT29 colon, 30.7 µM in the assay with A549 NSCLC and 19.4 µM with HOP-92 NSCLC. Also, the TGI in the assay with SK-OV-3 ovarian is greater than 100 µM; in the assay on MALME-3M melanoma, 38.6 µM; in the assay on NCI-H522 lung, greater than 100 µM; with UO-31 renal, 50.3 µM; with HOP-62 NSCLC, greater than 100 µM; in the assay on K-562 leukemia, greater than 100 µM. Moreover, the TGI in the assay on MOLT-4 leukemia is greater than 100 µM; with HT29 colon, 35.3 µM; with A549 NSCLC it was greater than 100 µM; with HOP-92 NSCLC, 44 µM.

With `Cc1ccc(-c2cc(-c3ccccc3)c(C#N)c(=O)n2C2OC(CO)C(O)C(O)C2O)cc1` (stereo not drawn), the TGI with SK-OV-3 ovarian, in the assay with MALME-3M melanoma, in the assay with NCI-H522 lung, in the assay with UO-31 renal, with HOP-62 NSCLC and in the assay on K-562 leukemia was greater than 100 µM in each case. Also, the TGI is 85.3 µM with MOLT-4 leukemia, greater than 100 µM in the assay on HT29 colon, greater than 100 µM with A549 NSCLC and greater than 100 µM in the assay with HOP-92 NSCLC.

Take `COc1cc2ncnc(Nc3ccc(F)c(Cl)c3)c2cc1NC(=O)/C=C/CN1CCCCC1`: the GI50 in the assay with SK-OV-3 ovarian is 0.0171 µM and 0.00478 µM; with MALME-3M melanoma it was 1.73 µM and 1.61 µM; in the assay on NCI-H522 lung, 0.0296 µM and 0.00694 µM; with HOP-62 NSCLC it was 2.11 µM and 3.02 µM; with K-562 leukemia, 1.65 µM and 2.05 µM; with MOLT-4 leukemia, 1.41 µM and 1.59 µM. The GI50 in the assay on HT29 colon was 1.68 µM and 2.08 µM; with A549 NSCLC, 1.27 µM and 1.65 µM; with HOP-92 NSCLC it was 0.0672 µM and 0.643 µM. Also, the TGI with SK-OV-3 ovarian is 2.3 µM and 2.23 µM; in the assay on MALME-3M melanoma, 3.31 µM and 3.09 µM; in the assay with NCI-H522 lung it was 1.64 µM and 1.89 µM; in the assay on UO-31 renal, 2.23 µM and 1.99 µM; with HOP-62 NSCLC, 5.65 µM and > 9.66 µM; in the assay with K-562 leukemia, 5.12 µM and > 8.09 µM. The TGI is 4.97 µM and 7.26 µM in the assay on MOLT-4 leukemia; 3.59 µM and > 7.79 µM in the assay on HT29 colon; 3.71 µM and > 8.03 µM with A549 NSCLC; 2.43 µM and 5.63 µM with HOP-92 NSCLC.

As for `CC1C(=O)OCC2=CCN3CCC(OC(=O)C(C)C1(C)O)C23` (stereo not drawn), the TGI in the assay on SK-OV-3 ovarian, in the assay with MALME-3M melanoma, with NCI-H522 lung, with UO-31 renal, in the assay with K-562 leukemia and in the assay with MOLT-4 leukemia was greater than 100 µM each time. Further, the TGI in the assay on HT29 colon, in the assay on A549 NSCLC and with HOP-92 NSCLC was greater than 100 µM in each case.

`CCN(CC)C(=S)SC`: the TGI with SK-OV-3 ovarian, in the assay with MALME-3M melanoma, in the assay on NCI-H522 lung, in the assay on HOP-62 NSCLC, in the assay with K-562 leukemia and in the assay with MOLT-4 leukemia was greater than 100 µM in each case. Further, the TGI with HT29 colon, in the assay with A549 NSCLC and with HOP-92 NSCLC was greater than 100 µM throughout.

Take `COC1OC(CO)C(O)C1N` (stereo not drawn): the TGI in the assay on SK-OV-3 ovarian, in the assay on MALME-3M melanoma, in the assay with NCI-H522 lung, in the assay with HOP-62 NSCLC, in the assay with K-562 leukemia and in the assay with MOLT-4 leukemia was greater than 100 µM each time. In addition, the TGI in the assay on HT29 colon, with A549 NSCLC and with HOP-92 NSCLC was greater than 100 µM in each case.

Take `CC[PH+](CC)CC.O=COC1OC([S-])C(OC=O)C(OC=O)C1OC=O.[Au+]` (stereo not drawn): the GI50 with SK-OV-3 ovarian was 1.85 µM; with MALME-3M melanoma it was 1.24 µM; in the assay with NCI-H522 lung it was 1.17 µM; in the assay with UO-31 renal, 1.69 µM; in the assay with HOP-62 NSCLC it was 1.58 µM; in the assay on K-562 leukemia it was 0.605 µM. Besides, the GI50 in the assay on MOLT-4 leukemia is 2.2 µM; in the assay on HT29 colon it was 1.65 µM; with HOP-92 NSCLC, 2.04 µM. Also, the TGI in the assay with SK-OV-3 ovarian was 3.36 µM; with MALME-3M melanoma, 2.58 µM; in the assay with NCI-H522 lung, 3.97 µM; with UO-31 renal, 3.05 µM; in the assay on HOP-62 NSCLC, 3.2 µM; in the assay on K-562 leukemia it was greater than 100 µM. The TGI in the assay with MOLT-4 leukemia was found to be 7.61 µM; in the assay on HT29 colon, 5.3 µM; in the assay on HOP-92 NSCLC, 3.66 µM.

`Cc1cccc(C)c1NC(=O)C1C(=O)N(c2c(C)cccc2C)C(=O)/C1=N\NC(N)=S` (stereo not drawn): the TGI with MALME-3M melanoma, in the assay with NCI-H522 lung, in the assay with UO-31 renal, in the assay on HOP-62 NSCLC, with K-562 leukemia and with MOLT-4 leukemia was greater than 100 µM in each case. The TGI in the assay on HT29 colon, in the assay with A549 NSCLC and with HOP-92 NSCLC was greater than 100 µM throughout.
